Reference: patent US12110276B2 (Genentech, Inc., priority 2021, dated 2024)

Assays:
TEAD1 = TEAD1 (Homo sapiens (Human), UniProt P28347); test: TR-FRET lipid pocket probe competition assay (Lipid HTRF), TEAD1; format: binding; settings: 4 hours pre-incubation; read-out: Lipid HTRF TEAD1 IC50;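 also: His-tagged TEAD1 with biotinylated probe, detected via Europium anti-His and XL665 streptavidin, probe displacement lowers TR-FRET signal, IC50 from four-parameter nonlinear fit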
TEAD3 = TEAD3 (Homo sapiens (Human), UniProt Q99594); test: TR-FRET lipid pocket probe competition assay (Lipid HTRF), TEAD3; format: binding; settings: 4 hours pre-incubation; read-out: Lipid HTRF TEAD3 IC50
Method: (§1) His-tagged TEAD proteins are pre-incubated with TEAD project compounds for 30 minutes or 4 hours at room temperature. Biotinylated lipid pocket probes are then added to the TEAD/Compound mixture and incubated for 60 minutes at room temperature. The lipid pocket probe competes with the test compound for the TEAD lipid pocket until equilibrium is reached. After 60 minutes, Europium labelled anti-His (Perkin Elmer #AD0110) and XL665 labelled streptavidin (CIS Bio 610SAXAC) are added to the TEAD/test compound/lipid pocket mixture and incubated for 30 minutes or 4 hours. […] If a TEAD lipid pocket binder such as binds and displaces the lipid pocket probe, the disruption of the TEAD:probe interaction results in a decrease in TR-FRET signal. The potency of compounds as TEAD lipid pocket binders is determined by IC50 value generated using a non-linear 4 parameter curve fit.

TEAD4 = TEAD4 (Homo sapiens (Human), UniProt Q15561); test: TR-FRET lipid pocket probe competition assay (Lipid HTRF), TEAD4; format: binding; settings: 4 hours pre-incubation; read-out: Lipid HTRF TEAD4 IC50;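 also: His-tagged TEAD4 with biotinylated lipid-pocket probe, read by Europium anti-His and XL665 streptavidin, where probe displacement lowers the TR-FRET signal, IC50 from a four-parameter fit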
Method: as §1

TEAD2 = TEAD2 (Homo sapiens (Human), UniProt Q15562);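 also: TR-FRET competition assay with His-tagged TEAD protein and a biotinylated lipid pocket probe, compound pre-incubated 30 min or 4 h at room temperature, displacement lowers signal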
Sequence of TEAD2 (Q15562 whole entry, species assumed): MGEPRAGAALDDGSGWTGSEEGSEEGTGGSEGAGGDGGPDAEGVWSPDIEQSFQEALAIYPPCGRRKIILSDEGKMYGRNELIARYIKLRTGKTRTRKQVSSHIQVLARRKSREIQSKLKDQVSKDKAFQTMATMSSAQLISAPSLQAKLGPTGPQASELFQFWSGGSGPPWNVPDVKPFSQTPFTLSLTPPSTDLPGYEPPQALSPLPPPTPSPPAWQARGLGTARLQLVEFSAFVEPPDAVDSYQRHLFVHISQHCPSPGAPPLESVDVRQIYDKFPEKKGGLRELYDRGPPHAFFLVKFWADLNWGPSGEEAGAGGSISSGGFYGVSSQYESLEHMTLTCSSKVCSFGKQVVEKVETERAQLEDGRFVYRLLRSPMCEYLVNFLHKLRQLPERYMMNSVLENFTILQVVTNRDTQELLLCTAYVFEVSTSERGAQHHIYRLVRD
Method: His-tagged TEAD proteins are pre-incubated with TEAD project compounds for 30 minutes or 4 hours at room temperature. Biotinylated lipid pocket probes are then added to the TEAD/Compound mixture and incubated for 60 minutes at room temperature. The lipid pocket probe competes with the test compound for the TEAD lipid pocket until equilibrium is reached. After 60 minutes, Europium labelled anti-His (Perkin Elmer #AD0110) and XL665 labelled streptavidin (CIS Bio 610SAXAC) are added to the TEAD/test compound/lipid pocket mixture and incubated for 30 minutes or 4 hours. TR-FRET values are then measured using an EnVision multi-label plate reader (Perkin Elmer Cat #2104-0010A.) If the lipid pocket probe binds to TEAD as expected, a TR-FRET signal results from the proximity of anti-His Eu and XL665. If a TEAD lipid pocket binder such as binds and displaces the lipid pocket probe, the disruption of the TEAD:probe interaction results in a decrease in TR-FRET signal. The potency of compounds as TEAD lipid pocket binders is determined by IC50 value generated using a non-linear 4 parameter curve fit.

Sequence of TEAD1 (P28347 whole entry, species assumed): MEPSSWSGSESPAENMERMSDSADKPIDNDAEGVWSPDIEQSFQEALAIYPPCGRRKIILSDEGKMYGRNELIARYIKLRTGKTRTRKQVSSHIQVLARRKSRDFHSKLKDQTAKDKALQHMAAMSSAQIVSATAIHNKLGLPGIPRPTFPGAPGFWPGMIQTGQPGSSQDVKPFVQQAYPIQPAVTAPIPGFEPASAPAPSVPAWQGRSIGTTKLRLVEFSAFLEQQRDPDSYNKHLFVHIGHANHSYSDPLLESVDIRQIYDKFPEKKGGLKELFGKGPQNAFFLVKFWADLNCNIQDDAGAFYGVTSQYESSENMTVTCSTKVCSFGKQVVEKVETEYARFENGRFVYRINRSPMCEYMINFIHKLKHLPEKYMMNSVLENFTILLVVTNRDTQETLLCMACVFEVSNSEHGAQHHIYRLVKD
Sequence of TEAD3 (Q99594 whole entry, species assumed): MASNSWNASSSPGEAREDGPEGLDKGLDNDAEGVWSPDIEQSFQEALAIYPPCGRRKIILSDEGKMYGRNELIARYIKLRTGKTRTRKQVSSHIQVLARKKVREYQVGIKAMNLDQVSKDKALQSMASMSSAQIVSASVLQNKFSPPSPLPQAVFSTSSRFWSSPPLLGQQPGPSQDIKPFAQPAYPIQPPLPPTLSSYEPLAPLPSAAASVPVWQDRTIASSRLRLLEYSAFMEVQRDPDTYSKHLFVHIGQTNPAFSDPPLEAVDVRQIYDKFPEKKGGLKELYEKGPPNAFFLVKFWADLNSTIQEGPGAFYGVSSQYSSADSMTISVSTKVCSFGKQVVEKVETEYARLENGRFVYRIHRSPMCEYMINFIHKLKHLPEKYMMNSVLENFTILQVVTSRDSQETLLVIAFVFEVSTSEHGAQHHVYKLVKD
Sequence of TEAD4 (Q15561 whole entry, species assumed): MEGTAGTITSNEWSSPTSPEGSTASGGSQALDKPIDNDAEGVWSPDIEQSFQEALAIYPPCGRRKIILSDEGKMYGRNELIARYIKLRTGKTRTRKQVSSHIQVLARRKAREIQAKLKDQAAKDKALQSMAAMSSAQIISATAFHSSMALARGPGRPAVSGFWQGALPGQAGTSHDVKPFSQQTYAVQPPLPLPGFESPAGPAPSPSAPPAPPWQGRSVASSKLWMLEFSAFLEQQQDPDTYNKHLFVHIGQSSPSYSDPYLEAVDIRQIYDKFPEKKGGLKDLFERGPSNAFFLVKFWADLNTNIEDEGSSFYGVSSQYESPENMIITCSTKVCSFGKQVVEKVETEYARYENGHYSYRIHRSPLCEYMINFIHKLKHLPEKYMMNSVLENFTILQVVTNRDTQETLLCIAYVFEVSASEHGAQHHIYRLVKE

| IC50 (TEAD1) | IC50 (TEAD3) | IC50 (TEAD4) | IC50 (TEAD2) | SMILES |
| --- | --- | --- | --- | --- |
| 33 nM | 2000 nM | 11 nM | 100 nM | C=CC(=O)NCc1nn(-c2ccc(OC(F)(F)F)cc2)c2nccc(N3CC[C@@H](O)C3)c12 [Compound 47, (R)-N-((4-(3-hydroxypyrrolidin-1-yl)-1-(4-(trifluoromethoxy)phenyl)-1H-pyrazolo[3,4-b]pyridin-3-yl)methyl)acrylamide] |
| 3.5 nM | 4.8 nM | 0.88 nM | 2.3 nM | C#Cc1ccnc2c1c(C1CN(C(=O)C=C)C1)nn2-c1ccc(OC(F)(F)F)cc1 [Compound 48, 1-(3-(4-Ethynyl-1-(4-(trifluoromethoxy)phenyl)-1H-pyrazolo[3,4-b]pyridin-3-yl)azetidin-1-yl)prop-2-en-1-one] |
| 24 nM | 200 nM | 9.5 nM | 75 nM | O=C(/C=C/CO)N1CC(c2nn(-c3ccc(OC(F)(F)F)cc3)c3nccc(-c4cn[nH]c4)c23)C1 [Compound 50, (E)-1-(3-(4-(1H-Pyrazol-4-yl)-1-(4-(trifluoromethoxy)phenyl)-1H-pyrazolo[3,4-b]pyridin-3-yl)azetidin-1-yl)-4-hydroxybut-2-en-1-one] |
| 32 nM | 510 nM | 15 nM | 120 nM | C=CC(=O)NCc1nn(-c2ccc(OC(F)(F)F)cc2)c2nccc(-c3c[nH]nn3)c12 [Compound 51, N-((4-(1H-1,2,3-Triazol-4-yl)-1-(4-(trifluoromethoxy)phenyl)-1H-pyrazolo[3,4-b]pyridin-3-yl)methyl)acrylamide] |
| 14 nM | 3500 nM | 3.4 nM | 45 nM | C=CC(=O)NCc1nn(-c2ccc(OC(F)(F)F)cc2)c2nccc(N3CC(C#N)C3)c12 [Compound 52, N-((4-(3-Cyanoazetidin-1-yl)-1-(4-(trifluoromethoxy)phenyl)-1H-pyrazolo[3,4-b]pyridin-3-yl)methyl)acrylamide] |
| 45 nM | 50000 nM | 3.5 nM | 36 nM | O=C(/C=C\Cl)NCc1nn(-c2ccc(OC(F)(F)F)cc2)c2nccc([C@H](O)CO)c12 [Compound 53, (S,Z)-3-chloro-N-((4-(1,2-dihydroxyethyl)-1-(4-(trifluoromethoxy)phenyl)-1H-pyrazolo[3,4-b]pyridin-3-yl)methyl)acrylamide] |
| 490 nM | 10000 nM | 860 nM | 730 nM | C=CC(=O)NCc1nn(-c2ccc(OC(F)(F)F)cc2)c2nccc(CN3CC(O)C3)c12 [Compound 54, N-((4-((3-Hydroxyazetidin-1-yl)methyl)-1-(4-(trifluoromethoxy)phenyl)-1H-pyrazolo[3,4-b]pyridin-3-yl)methyl)acrylamide] |
| 17 nM | 160 nM | 12 nM | 120 nM | C=CC(=O)N(C)Cc1nn(-c2ccc(OC(F)(F)F)cc2)c2nccc(CO)c12 [Compound 55, N-((4-(Hydroxymethyl)-1-(4-(trifluoromethoxy)phenyl)-1H-pyrazolo[3,4-b]pyridin-3-yl)methyl)-N-methylacrylamide] |
| 39 nM | 50000 nM | 11 nM | 85 nM | C=CC(=O)NCc1nn(-c2ccc(OC(F)(F)F)cc2)c2nccc([C@H]3C[C@H](O)C3)c12 [Compound 56, N-((4-(trans-3-hydroxycyclobutyl)-1-(4-(trifluoromethoxy)phenyl)-1H-pyrazolo[3,4-b]pyridin-3-yl)methyl)acrylamide] |
| 36 nM | 350 nM | 5.1 nM | 37 nM | C=C(F)C(=O)N1CC(c2nn(-c3ccc(OC(F)(F)F)cc3)c3nccc(N4CC(F)(C(N)=O)C4)c23)C1 [Compound 57, 3-Fluoro-1-(3-(1-(2-fluoroacryloyl)azetidin-3-yl)-1-(4-(trifluoromethoxy)phenyl)-1H-pyrazolo[3,4-b]pyridin-4-yl)azetidine-3-carboxamide] |
| 38 nM | 50000 nM | 9.6 nM | 70 nM | C=C(F)C(=O)N1CC(c2nn(-c3ccc(OC(F)(F)F)cc3)c3nccc(N4CC([C@@H](O)CO)C4)c23)C1 [Compound 58, (R)-1-(3-(4-(3-(1,2-Dihydroxyethyl)azetidin-1-yl)-1-(4-(trifluoromethoxy)phenyl)-1H-pyrazolo[3,4-b]pyridin-3-yl)azetidin-1-yl)-2-fluoroprop-2-en-1-one] |
| 58 nM | 860 nM | 13 nM | 71 nM | C=CC(=O)NCc1nn(-c2ccc(OC(F)(F)F)cc2)c2nccc([C@@H](C)O)c12 [Compound 62, (R)-N-((4-(1-Hydroxyethyl)-1-(4-(trifluoromethoxy)phenyl)-1H-pyrazolo[3,4-b]pyridin-3-yl)methyl)acrylamide] |
| 135 nM | 10500 nM | 78.5 nM | 124 nM | C=CC(=O)NCc1nn(-c2ccc(OC(F)(F)F)cc2)c2nccc([C@H](C)O)c12 [Compound 63, (S)-N-((4-(1-hydroxyethyl)-1-(4-(trifluoromethoxy)phenyl)-1H-pyrazolo[3,4-b]pyridin-3-yl)methyl)acrylamide] |
| 23 nM | 1300 nM | 21 nM | 170 nM | C=C(F)C(=O)N1CC(c2nn(-c3ccc(OC(F)(F)F)cc3)c3nccc(-n4ccnc4)c23)C1 [Compound 64, 1-(3-(4-(1H-Imidazol-1-yl)-1-(4-(trifluoromethoxy)phenyl)-1H-pyrazolo[3,4-b]pyridin-3-yl)azetidin-1-yl)-2-fluoroprop-2-en-1-one] |
| 44 nM | 340 nM | 33 nM | 180 nM | C[C@@H](O)/C=C/C(=O)N1CC(c2nn(-c3ccc(OC(F)(F)F)cc3)c3nccc(CO)c23)C1 [Compound 66, (R,E)-4-Hydroxy-1-(3-(4-(hydroxymethyl)-1-(4-(trifluoromethoxy)phenyl)-1H-pyrazolo[3,4-b]pyridin-3-yl)azetidin-1-yl)pent-2-en-1-one] |
| 71 nM | 980 nM | 140 nM | 550 nM | C=C(F)C(=O)NCc1nn(-c2ccc(OC(F)(F)F)cc2)c2nccc(CO)c12 [Compound 68, 2-Fluoro-N-((4-(hydroxymethyl)-1-(4-(trifluoromethoxy)phenyl)-1H-pyrazolo[3,4-b]pyridin-3-yl)methyl)acrylamide] |
| 17 nM | 140 nM | 3.6 nM | 37 nM | O=C(/C=C/CO)N1CC(c2nn(-c3ccc(OC(F)(F)F)cc3)c3nccc(N4CC(O)C4)c23)C1 [Compound 70, (E)-4-Hydroxy-1-(3-(4-(3-hydroxyazetidin-1-yl)-1-(4-(trifluoromethoxy)phenyl)-1H-pyrazolo[3,4-b]pyridin-3-yl)azetidin-1-yl)but-2-en-1-one] |
| 32 nM | 43 nM | 16 nM | 5.3 nM | CC#CC(=O)N1CC(c2nn(-c3ccc(OC(F)(F)F)cc3)c3nccc([C@@H](O)CO)c23)C1 [Compound 71, (R)-1-(3-(4-(1,2-dihydroxyethyl)-1-(4-(trifluoromethoxy)phenyl)-1H-pyrazolo[3,4-b]pyridin-3-yl)azetidin-1-yl)but-2-yn-1-one] |
| 32 nM | 4100 nM | 4.8 nM | 140 nM | C=CC(=O)NCc1nn(-c2ccc(OC(F)(F)F)cc2)c2nccc(N3CC(C)(O)C3)c12 [Compound 74, N-((4-(3-hydroxy-3-methylazetidin-1-yl)-1-(4-(trifluoromethoxy)phenyl)-1H-pyrazolo[3,4-b]pyridin-3-yl)methyl)acrylamide] |
| 45 nM | 1100 nM | 5.2 nM | 19 nM | C=C(F)C(=O)N1CC(c2nn(-c3ccc(OC(F)(F)F)cc3)c3nccc(N4CC(O)(CO)C4)c23)C1 [Compound 75, 2-Fluoro-1-(3-(4-(3-hydroxy-3-(hydroxymethyl)azetidin-1-yl)-1-(4-(trifluoromethoxy)phenyl)-1H-pyrazolo[3,4-b]pyridin-3-yl)azetidin-1-yl)prop-2-en-1-one] |
| 180 nM | 13000 nM | 150 nM | 2800 nM | C=C(F)C(=O)N1CC(c2nn(-c3ccc(OC(F)(F)F)cc3)c3ccnc(N4CC(O)C4)c23)C1 [Compound 78, 2-fluoro-1-(3-(4-(3-hydroxyazetidin-1-yl)-1-(4-(trifluoromethoxy)phenyl)-1H-pyrazolo[4,3-c]pyridin-3-yl)azetidin-1-yl)prop-2-en-1-one] |
| 19 nM | 20 nM | 6.8 nM | 60 nM | N#Cc1ccnc2c1c(C1CN(C(=O)/C=C/CO)C1)nn2-c1ccc(OC(F)(F)F)cc1 [Compound 79] |
| 18 nM | 29 nM | 16 nM | 68 nM | C=C(F)C(=O)N1CC(c2nn(-c3ccc(OC(F)(F)F)cc3)c3nccc(C#N)c23)C1 [Compound 80, 3-(1-(2-fluoroacryloyl)azetidin-3-yl)-1-(4-(trifluoromethoxy)phenyl)-1H-pyrazolo[3,4-b]pyridine-4-carbonitrile] |
| 32 nM | 240 nM | 11 nM | 24 nM | C=C(F)C(=O)N1CC(c2nn(-c3ccc(OC(F)(F)F)cc3)c3nccc(N4CC(O)C4)c23)C1 [Compound 81, 2-Fluoro-1-(3-(4-(3-hydroxyazetidin-1-yl)-1-(4-(trifluoromethoxy)phenyl)-1H-pyrazolo[3,4-b]pyridin-3-yl)azetidin-1-yl)prop-2-en-1-one] |

| SMILES | IC50 (TEAD1) | IC50 (TEAD3) | IC50 (TEAD4) | IC50 (TEAD2) |
| --- | --- | --- | --- | --- |
| C=CC(=O)NCc1nn(-c2ccc(OC(F)(F)F)cc2)c2nccc(O[C@H]3C[C@H](O)C3)c12 [Compound 67, N-((4-(trans-3-Hydroxycyclobutoxy)-1-(4-(trifluoromethoxy)phenyl)-1H-pyrazolo[3,4-b]pyridin-3-yl)methyl)acrylamide] | 100 nM | 50000 nM | 31 nM | 365 nM |
